{
  "source": "patent US20070207946A1",
  "about": "“Dipeptidyl peptidase IV inhibitors and their uses for lowering blood pressure levels” (priority 2001, published 2007)",
  "molecular_target": "T1, plasma DPIV activity (Rattus norvegicus, UniProt P14740)",
  "T1 construct": "from tissue; host or cells: plasma of Wistar rats",
  "T1 sequence (P14740 38-767 limits assumed)": "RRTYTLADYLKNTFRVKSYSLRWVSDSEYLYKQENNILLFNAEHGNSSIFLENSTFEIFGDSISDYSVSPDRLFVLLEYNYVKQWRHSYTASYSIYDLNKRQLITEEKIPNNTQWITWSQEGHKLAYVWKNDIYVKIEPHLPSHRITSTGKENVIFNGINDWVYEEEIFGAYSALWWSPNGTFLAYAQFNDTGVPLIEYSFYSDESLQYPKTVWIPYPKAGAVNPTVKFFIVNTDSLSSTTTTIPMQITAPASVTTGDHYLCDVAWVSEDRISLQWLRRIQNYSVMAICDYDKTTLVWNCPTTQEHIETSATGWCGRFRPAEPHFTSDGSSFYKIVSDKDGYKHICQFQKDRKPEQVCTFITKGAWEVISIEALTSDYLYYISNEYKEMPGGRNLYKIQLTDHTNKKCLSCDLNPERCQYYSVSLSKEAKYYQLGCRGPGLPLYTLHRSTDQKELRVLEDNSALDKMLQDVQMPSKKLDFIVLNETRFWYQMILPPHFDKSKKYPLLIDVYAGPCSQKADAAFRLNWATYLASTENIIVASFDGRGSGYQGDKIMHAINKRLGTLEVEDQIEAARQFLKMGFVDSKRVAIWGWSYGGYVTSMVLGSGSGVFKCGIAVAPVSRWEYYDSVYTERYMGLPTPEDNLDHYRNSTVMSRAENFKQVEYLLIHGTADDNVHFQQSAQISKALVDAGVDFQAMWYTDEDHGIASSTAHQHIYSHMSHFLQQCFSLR",
  "assay": "DPIV inhibiting activity after intravasal and oral administration to Wistar rats",
  "format": "in vivo",
  "conditions": "rat",
  "description": "Male Wistar rats (Shoe: Wist(Sho)) with a body weight ranging between 250 and 350 g were purchased from Tierzucht Schönwalde (Schönwalde, Germany).\nAnimals were single-caged under conventional conditions with controlled temperature (22±2° C.) on a 12/12 hours light/dark cycle (light on at 06:00 AM). Standard pelleted chow (ssniff® Soest, Germany) and tap water acidified with HCl were allowed ad libitum.\nAfter ≧one week of adaptation at the housing conditions, catheters were implanted into the carotid artery of Wistar rats under general anaesthesia (i.p. injection of 0.25 ml/kg b.w. Rompun® [2%], BayerVital, Germany and 0.5 ml/kg b.w. Ketamin 10, Atarost GmbH & Co., Twistringen, Germany). The animals were allowed to recover for one week. The catheters were flushed with heparin-saline (100 IU/ml) three times per week. In case of catheter dysfunction, a second catheter was inserted into the contra-lateral carotid artery of the respective rat. After one week of recovery from surgery, this animal was reintegrated into the study. In case of dysfunction of the second catheter, the animal was withdrawn from the study. A new animal was recruited and the experiments were continued in the planned sequence, beginning at least 7 days after catheter implantation.\nAfter overnight fasting, 100 μl samples of heparinised arterial blood were collected at −30, −5, and 0 min. […] In the case of oral administration, an additional volume of 1 ml saline was injected into the arterial catheter. In the case of infra-arterial administration, the catheter was immediately flushed with 30 μl saline and an additional 1 ml of saline was given orally via the feeding tube.\nAll blood samples were collected into ice cooled Eppendorf tubes (Eppendorf-Netheler-Hinz, Hamburg, Germany) filled with 10 μl 1M sodium citrate buffer (pH 3.0) for plasma DPIV activity measurement. Eppendorf tubes were centrifuged immediately (12000 rpm for 2 min, Hettich Zentrifuge EBA 12, Tuttlingen; Germany): The plasma fractions were stored on ice until analysis or were frozen at −20° C. until analysis. All plasma samples were labelled with the following data:\nThe assay mixture for determination of plasma DPIV activity consisted of 80 μl reagent and 20 μl plasma sample. […] The DPIV activity was expressed in mU/ml.\nAll parameters were analysed in a descriptive manner including mean and SD.",
  "note": "Where two headings read alike, the source gives them in different places.",
  "data": [
    {"smiles": "NC(=O)CCC(N)C(=O)N1CCCC1", "note": "(centres unmarked) [Gln-Pyrr, glutaminyl pyrrolidine]", "values": [
      {"measurement": "inhibition at 100 mg/kg", "setting": "iv, intra-vasal (intra-arterial) route, read-out: in vivo DPIV-inhibition at tmax, i.v.", "result": 80, "unit": "%"},
      {"measurement": "inhibition at 100 mg/kg", "setting": "oral, read-out: in vivo DPIV-inhibition at tmax, p.o.", "result": 67, "unit": "%"}
    ]}
  ]
}
